In patent US6761904B2 (Nycomed Austria GmbH, priority 2000, dated 2004):

Tests used:
[1] = Plasma pharmacokinetics of midodrine and desglymidodrine after oral intake / colon absorption (general findings and presumptions); format: in vivo, human; settings: for Cmax: 7.5 mg, presumption made in estimating the target profile, obtained after tablet administration
[2] = after oral administration of a single dose; cited from earlier work

Row | Structure (SMILES) | tmax of desglymidodrine after colon absorption ([1]; after application to the colon) | Cmax ([1]; human, in vivo) [ng/mL] | Tmax ([1]; human, in vivo, po) [h] | Cmax ([1]; human, plasma, oral) [ng/mL] | tmax after oral intake of midodrine ([1]; midodrine itself in plasma) | persistence of the pressor effect [2] [h] | time until the pressor effect is manifest [2] [min]
1 | COc1ccc(OC)c(C(O)CN)c1 (stereo not drawn) [desglymidodrine, alpha-(aminomethyl)-2,5-dimethoxy-benzenemethanol] | approximately 3 hours | ~3.75 | 1 to 2 | – | – | – | –
2 | COc1ccc(OC)c(C(O)CNC(=O)CN)c1 (stereo not shown) [midodrine, 2-amino-N-[2-(2,5-dimethoxyphenyl)-2-hydroxyethyl]-acetamide] | – | – | – | ~11 | about 30 min | 3 to 6 | 20 to 90
